# Measured values reported in patent US20110065087A1, “NOVEL HIV TARGETS” (priority 2007, published 2011).
# d = 2'-deoxy (DNA); r = 2'-OH (RNA)
# System: HXB2 HIV
# Assay: Rescue of 3′UTR siRNA-mediated inhibition of HIV replication by non-targeted cDNA, β-galactosidase readout
# Assay type: cell-based
# Settings: LIG3 cDNA lacking the 3′UTR; FIG. 7
substance,measurement,value
"CAUACUCUCCUUUACCAUAdTdT (CAUACUCUCCUUUACCAUATT; siRNA; sugars from the 5' end r19 d2, backbone not given here) [LIG3 siRNA #8, siRNA targeting the 3′UTR of LIG3]","p, difference between siRNA+vector-transfected and siRNA+cDNA transfected",< 0.05
